Results published in article PMC11822212, “High-throughput screening identifies Aurora kinase B as a critical therapeutic target for Merkel cell carcinoma” (Nature Communications, 2025).
Like-named read-outs stand apart in the source and are kept apart here.

Tests used:
MCC13 cells (VN-MCC) = assay: qHTS cell viability (CellTiter-Glo, 72 h; primary and follow-up small molecule screen); assay type: cell-based, human
MCC26 cells (VN-MCC) = assay: as above; assay type: cell-based, human
UISO cells (VN-MCC) = assay: as above; assay type: cell-based, human; conditions: UISO
WAGA cells (VP-MCC) = assay: as above; assay type: cell-based, human; conditions: WAGA
MKL-1 cells (VP-MCC) = assay: as above; assay type: cell-based, human
MKL-2 cells (VP-MCC) = assay: as above; assay type: cell-based, human
[1] = qHTS cell viability (CellTiter-Glo, 72 h; primary screen), control cell line; assay type: cell-based, human; conditions: human, HACAT, read-out: Percent viability
[2] = as above; assay type: cell-based, human; conditions: human, HEK293T, read-out: Percent viability
[3] = as above; assay type: cell-based, mouse; conditions: mouse, read-out: Percent viability
[4] = as above; assay type: cell-based; conditions: human, read-out: Percent viability
[5] = test system: VP-MCC cell lines (WAGA, MKL-1, MKL-2); assay: qHTS cell viability, VP-MCC cell lines as a group (mean AUC, VP.MCC.avg); assay type: cell-based, human; conditions: small molecule screen
[6] = test system: MKL-1 (VP-MCC) xenograft tumors; parameters: method as in PMID 22572880; conditions: prior report; cited from earlier work

COCCn1c2c([n+](Cc3cnccn3)c1C)C(=O)c1ccccc1C2=O [sepantronium bromide, reference compound]
Percent viability (MCC13 cells (VN-MCC); MCC-13, Log (M) -4.33646): 8.9% | Percent viability (MCC13 cells (VN-MCC); MCC-13, Log (M) -4.81358): 6.8% | Percent viability (MCC13 cells (VN-MCC); MCC-13, Log (M) -5.2907): 19.3% | Percent viability (MCC13 cells (VN-MCC); MCC-13, Log (M) -5.76782): 19.0% | Percent viability (MCC13 cells (VN-MCC); MCC-13, Log (M) -6.24494): 57.5% | Percent viability (MCC13 cells (VN-MCC); MCC-13, Log (M) -6.72207): 89.4% | Percent viability (MCC13 cells (VN-MCC); MCC-13, Log (M) -7.19919): 92.8% | Percent viability (MCC13 cells (VN-MCC); MCC-13, Log (M) -7.67631): 105.1% | Percent viability (MCC13 cells (VN-MCC); MCC-13, Log (M) -8.15343): 92.1% | Percent viability (MCC13 cells (VN-MCC); MCC-13, Log (M) -8.63055): 110.1% | Percent viability (MCC13 cells (VN-MCC); MCC-13, Log (M) -9.10767): 104.4% | Percent viability (MCC26 cells (VN-MCC); MCC-26, Log (M) -4.33646): 12.7% | Percent viability (MCC26 cells (VN-MCC); MCC-26, Log (M) -4.81358): 14.1% | Percent viability (MCC26 cells (VN-MCC); MCC-26, Log (M) -5.2907): 15.5% | Percent viability (MCC26 cells (VN-MCC); MCC-26, Log (M) -5.76782): 13.0% | Percent viability (MCC26 cells (VN-MCC); MCC-26, Log (M) -6.24494): 32.6% | Percent viability (MCC26 cells (VN-MCC); MCC-26, Log (M) -6.72207): 74.3% | Percent viability (MCC26 cells (VN-MCC); MCC-26, Log (M) -7.19919): 94.8% | Percent viability (MCC26 cells (VN-MCC); MCC-26, Log (M) -7.67631): 100.8% | Percent viability (MCC26 cells (VN-MCC); MCC-26, Log (M) -8.15343): 100.6% | Percent viability (MCC26 cells (VN-MCC); MCC-26, Log (M) -8.63055): 101.9% | Percent viability (MCC26 cells (VN-MCC); MCC-26, Log (M) -9.10767): 102.7% | Percent viability (UISO cells (VN-MCC); Log (M) -4.33646): 1.7% | Percent viability (UISO cells (VN-MCC); Log (M) -4.81358): -3.1% | Percent viability (UISO cells (VN-MCC); Log (M) -5.76782): 0.3% | Percent viability (UISO cells (VN-MCC); Log (M) -6.24494): -7.3% | Percent viability (UISO cells (VN-MCC); Log (M) -6.72207): -3.8% | Percent viability (UISO cells (VN-MCC); Log (M) -7.19919): 3.4% | Percent viability (UISO cells (VN-MCC); Log (M) -7.67631): 44.8% | Percent viability (UISO cells (VN-MCC); Log (M) -8.15343): 99.6% | Percent viability (UISO cells (VN-MCC); Log (M) -8.63055): 102.4% | Percent viability (UISO cells (VN-MCC); Log (M) -9.10767): 104.0% | Percent viability (WAGA cells (VP-MCC); Log (M) -4.33646): 2.2% | Percent viability (WAGA cells (VP-MCC); Log (M) -4.81358): 2.7% | Percent viability (WAGA cells (VP-MCC); Log (M) -5.2907): 3.2% | Percent viability (WAGA cells (VP-MCC); Log (M) -5.76782): 3.6% | Percent viability (WAGA cells (VP-MCC); Log (M) -6.24494): 3.4% | Percent viability (WAGA cells (VP-MCC); Log (M) -6.72207): 4.1% | Percent viability (WAGA cells (VP-MCC); Log (M) -7.19919): 5.7% | Percent viability (WAGA cells (VP-MCC); Log (M) -7.67631): 15.6% | Percent viability (WAGA cells (VP-MCC); Log (M) -8.15343): 103.1% | Percent viability (WAGA cells (VP-MCC); Log (M) -8.63055): 106.2% | Percent viability (WAGA cells (VP-MCC); Log (M) -9.10767): 107.0% | Percent viability (MKL-1 cells (VP-MCC); MKL1, Log (M) -4.33646): 4.1% | Percent viability (MKL-1 cells (VP-MCC); MKL1, Log (M) -4.81358): 5.1% | Percent viability (MKL-1 cells (VP-MCC); MKL1, Log (M) -5.2907): 6.0% | Percent viability (MKL-1 cells (VP-MCC); MKL1, Log (M) -5.76782): 6.5% | Percent viability (MKL-1 cells (VP-MCC); MKL1, Log (M) -6.24494): 8.2% | Percent viability (MKL-1 cells (VP-MCC); MKL1, Log (M) -6.72207): 7.5% | Percent viability (MKL-1 cells (VP-MCC); MKL1, Log (M) -7.19919): 7.7% | Percent viability (MKL-1 cells (VP-MCC); MKL1, Log (M) -7.67631): 8.0% | Percent viability (MKL-1 cells (VP-MCC); MKL1, Log (M) -8.15343): 17.1% | Percent viability (MKL-1 cells (VP-MCC); MKL1, Log (M) -8.63055): 55.6% | Percent viability (MKL-1 cells (VP-MCC); MKL1, Log (M) -9.10767): 97.8% | Percent viability (MKL-2 cells (VP-MCC); MKL2, Log (M) -4.33646): 5.0% | Percent viability (MKL-2 cells (VP-MCC); MKL2, Log (M) -4.81358): 6.0% | Percent viability (MKL-2 cells (VP-MCC); MKL2, Log (M) -5.2907): 6.6% | Percent viability (MKL-2 cells (VP-MCC); MKL2, Log (M) -5.76782): 7.9% | Percent viability (MKL-2 cells (VP-MCC); MKL2, Log (M) -6.24494): 7.7% | Percent viability (MKL-2 cells (VP-MCC); MKL2, Log (M) -6.72207): 7.4% | Percent viability (MKL-2 cells (VP-MCC); MKL2, Log (M) -7.19919): 9.2% | Percent viability (MKL-2 cells (VP-MCC); MKL2, Log (M) -7.67631): 27.9% | Percent viability (MKL-2 cells (VP-MCC); MKL2, Log (M) -8.15343): 100.0% | Percent viability (MKL-2 cells (VP-MCC); MKL2, Log (M) -8.63055): 100.0% | Percent viability (MKL-2 cells (VP-MCC); MKL2, Log (M) -9.10767): 102.5% | viability at 72 h, 15.4 µM ([1]; HACAT cells (control cell line), Log (M) -4.81358): 21.2% | viability at 72 h, 5.12 µM ([1]; HACAT cells (control cell line), Log (M) -5.2907): 18.9% | viability at 72 h, 1.71 µM ([1]; HACAT cells (control cell line), Log (M) -5.76782): 48.7% | viability at 72 h, 0.569 µM ([1]; HACAT cells (control cell line), Log (M) -6.24494): 44.2% | viability at 72 h, 190 nM ([1]; HACAT cells (control cell line), Log (M) -6.72207): 35.1% | viability at 72 h, 63.2 nM ([1]; HACAT cells (control cell line), Log (M) -7.19919): 66.6% | viability at 72 h, 46.1 µM ([1]; HACAT cells, Log (M) -4.33646): 21.2% | viability at 72 h, 21.1 nM ([1]; HACAT cells, Log (M) -7.67631): 100% | viability at 72 h, 7.02 nM ([1]; HACAT cells, Log (M) -8.15343): 98.2% | viability at 72 h, 2.34 nM ([1]; HACAT cells, Log (M) -8.63055): 88.9% | viability at 72 h, 0.78 nM ([1]; HACAT cells, Log (M) -9.10767): 104% | viability at 72 h, 15.4 µM ([2]; HEK293T cells (control cell line), Log (M) -4.81358): 1% | viability at 72 h, 5.12 µM ([2]; HEK293T cells (control cell line), Log (M) -5.2907): -4.1% | viability at 72 h, 1.71 µM ([2]; HEK293T cells (control cell line), Log (M) -5.76782): -3.3% | viability at 72 h, 63.2 nM ([2]; HEK293T cells (control cell line), Log (M) -7.19919): -1.7% | viability at 72 h, 46.1 µM ([2]; HEK293T cells, Log (M) -4.33646): -1.2% | viability at 72 h, 21.1 nM ([2]; HEK293T cells, Log (M) -7.67631): 23.3% | viability at 72 h, 7.02 nM ([2]; HEK293T cells, Log (M) -8.15343): 104% | viability at 72 h, 2.34 nM ([2]; HEK293T cells, Log (M) -8.63055): 100% | viability at 72 h, 0.78 nM ([2]; HEK293T cells, Log (M) -9.10767): 100% | viability at 72 h, 15.4 µM ([3]; NIH-3T3 cells (control cell line), 3T3, Log (M) -4.81358): 62.5% | viability at 72 h, 5.12 µM ([3]; NIH-3T3 cells (control cell line), 3T3, Log (M) -5.2907): 69.8% | viability at 72 h, 1.71 µM ([3]; NIH-3T3 cells (control cell line), 3T3, Log (M) -5.76782): 96.1% | viability at 72 h, 0.569 µM ([3]; NIH-3T3 cells (control cell line), 3T3, Log (M) -6.24494): 104% | viability at 72 h, 190 nM ([3]; NIH-3T3 cells (control cell line), 3T3, Log (M) -6.72207): 100% | viability at 72 h, 63.2 nM ([3]; NIH-3T3 cells (control cell line), 3T3, Log (M) -7.19919): 100% | viability at 72 h, 21.1 nM ([3]; NIH-3T3 cells (control cell line), 3T3, Log (M) -7.67631): 104% | viability at 72 h, 46.1 µM ([3]; NIH-3T3 cells, 3T3, Log (M) -4.33646): 20.8% | viability at 72 h, 7.02 nM ([3]; NIH-3T3 cells, 3T3, Log (M) -8.15343): 103% | viability at 72 h, 2.34 nM ([3]; NIH-3T3 cells, 3T3, Log (M) -8.63055): 100% | viability at 72 h, 0.78 nM ([3]; NIH-3T3 cells, 3T3, Log (M) -9.10767): 100% | viability at 72 h, 46.1 µM ([4]; CRL-7250 cells (control cell line), CRL-7250, Log (M) -4.33646): -4.6% | viability at 72 h, 15.4 µM ([4]; CRL-7250 cells (control cell line), CRL-7250, Log (M) -4.81358): 10.1% | viability at 72 h, 5.12 µM ([4]; CRL-7250 cells (control cell line), CRL-7250, Log (M) -5.2907): -5.4% | viability at 72 h, 1.71 µM ([4]; CRL-7250 cells (control cell line), CRL-7250, Log (M) -5.76782): -4.8% | viability at 72 h, 569 nM ([4]; CRL-7250 cells (control cell line), CRL-7250, Log (M) -6.24494): -8.6% | viability at 72 h, 190 nM ([4]; CRL-7250 cells (control cell line), CRL-7250, Log (M) -6.72207): 39.2% | viability at 72 h, 63.2 nM ([4]; CRL-7250 cells (control cell line), CRL-7250, Log (M) -7.19919): 65.6% | viability at 72 h, 21.1 nM ([4]; CRL-7250 cells, CRL-7250, Log (M) -7.67631): 101% | viability at 72 h, 2.34 nM ([4]; CRL-7250 cells, CRL-7250, Log (M) -8.63055): 100% | viability of VP-MCC (in words) [5]: potent compound for inhibiting the viability of VP-MCC | growth of MKL-1 (VP-MCC) xenograft tumors (in words) [6]: slowed the growth of MKL-1 (VP-MCC) xenograft tumors
